Experimental data as given in ChEMBL document CHEMBL1201862, “PubChem BioAssay data set” (2004).
Calls of active or inactive are those of the source.

Columns and labels:
[1] = molecular target: T1, Zinc finger protein mex-5 (Caenorhabditis elegans, UniProt Q9XUB2); experiment: potency of MEX-5 RNA-binding blockers – biochemical, C. elegans, fluorescence polarization, dose response (AID 1960)
T1 sequence (Q9XUB2 whole entry): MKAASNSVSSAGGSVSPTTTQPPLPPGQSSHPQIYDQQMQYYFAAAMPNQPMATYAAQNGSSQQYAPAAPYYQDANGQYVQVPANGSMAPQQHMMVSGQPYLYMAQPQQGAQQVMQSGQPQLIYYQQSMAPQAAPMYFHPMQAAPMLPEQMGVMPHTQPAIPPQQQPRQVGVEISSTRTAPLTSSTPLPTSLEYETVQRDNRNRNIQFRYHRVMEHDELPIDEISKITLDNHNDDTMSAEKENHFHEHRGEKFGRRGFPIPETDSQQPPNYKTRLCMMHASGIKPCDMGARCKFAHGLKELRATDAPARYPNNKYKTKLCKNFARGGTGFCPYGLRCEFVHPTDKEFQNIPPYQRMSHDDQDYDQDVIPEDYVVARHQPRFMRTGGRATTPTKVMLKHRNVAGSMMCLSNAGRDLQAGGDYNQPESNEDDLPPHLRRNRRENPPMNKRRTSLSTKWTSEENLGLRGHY

[2] = molecular target: T2, SUMO-activating enzyme (Homo sapiens, UniProt Q9UBT2); experiment: blockers of SAE1/SAE2–UBC9 SUMO transfer – biochemical, HTRF, uHTS, primary screen (AID 2006); format: protein-complex assay
[3] = molecular target: T3, Aminopeptidase N (Plasmodium falciparum FcB1/Columbia, UniProt O96935); experiment: malaria alanyl aminopeptidase activity blockers – biochemical, fluorogenic H-Leu-NHMec substrate, 1536-well (AID 1445); set-up: species or system Plasmodium falciparum 3D7, 3D7
T3 sequence (O96935 whole entry): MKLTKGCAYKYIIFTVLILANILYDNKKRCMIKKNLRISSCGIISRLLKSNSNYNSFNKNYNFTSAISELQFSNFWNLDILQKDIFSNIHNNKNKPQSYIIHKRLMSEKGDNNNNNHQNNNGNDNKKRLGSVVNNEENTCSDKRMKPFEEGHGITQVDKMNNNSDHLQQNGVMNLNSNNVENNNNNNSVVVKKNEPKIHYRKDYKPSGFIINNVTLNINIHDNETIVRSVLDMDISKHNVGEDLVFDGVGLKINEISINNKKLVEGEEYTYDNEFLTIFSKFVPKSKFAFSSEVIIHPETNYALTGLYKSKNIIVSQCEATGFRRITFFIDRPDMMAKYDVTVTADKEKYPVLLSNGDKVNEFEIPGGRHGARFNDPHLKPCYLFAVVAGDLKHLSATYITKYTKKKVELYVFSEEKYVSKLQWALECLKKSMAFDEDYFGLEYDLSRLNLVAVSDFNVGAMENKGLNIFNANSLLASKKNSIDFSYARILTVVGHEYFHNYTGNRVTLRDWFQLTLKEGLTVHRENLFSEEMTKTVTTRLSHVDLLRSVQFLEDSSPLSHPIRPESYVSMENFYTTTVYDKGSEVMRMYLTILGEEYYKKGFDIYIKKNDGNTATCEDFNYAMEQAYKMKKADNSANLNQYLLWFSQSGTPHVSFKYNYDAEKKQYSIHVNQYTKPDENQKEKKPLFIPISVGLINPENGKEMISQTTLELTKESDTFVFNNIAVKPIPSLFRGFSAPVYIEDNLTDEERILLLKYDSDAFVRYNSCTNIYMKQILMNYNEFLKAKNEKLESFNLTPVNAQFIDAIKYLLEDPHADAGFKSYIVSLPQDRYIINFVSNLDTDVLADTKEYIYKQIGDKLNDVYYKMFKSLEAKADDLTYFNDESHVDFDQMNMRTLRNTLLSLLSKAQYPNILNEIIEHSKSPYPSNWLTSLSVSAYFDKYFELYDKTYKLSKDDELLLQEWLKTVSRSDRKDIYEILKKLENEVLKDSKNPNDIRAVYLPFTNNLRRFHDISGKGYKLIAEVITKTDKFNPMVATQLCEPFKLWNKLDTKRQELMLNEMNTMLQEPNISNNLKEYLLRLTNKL

[4] = molecular target: T2, SUMO-activating enzyme; experiment: blockers of UBC9-mediated SUMO conjugation – biochemical, AlphaScreen, SUMOylation inhibitor project, confirmation (AID 2018); format: functional
[5] = molecular target: T4, RNA-binding protein pos-1 (Caenorhabditis elegans, UniProt G5EF15); experiment: disruptors of C. elegans POS-1 RNA interaction – biochemical, fluorescence polarization, dose response (AID 1964);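 note: purified POS-1 fused to maltose binding protein made in E. coli; potency of compounds blocking POS-1 binding to fluorescent RNA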
T4 sequence (G5EF15 whole entry): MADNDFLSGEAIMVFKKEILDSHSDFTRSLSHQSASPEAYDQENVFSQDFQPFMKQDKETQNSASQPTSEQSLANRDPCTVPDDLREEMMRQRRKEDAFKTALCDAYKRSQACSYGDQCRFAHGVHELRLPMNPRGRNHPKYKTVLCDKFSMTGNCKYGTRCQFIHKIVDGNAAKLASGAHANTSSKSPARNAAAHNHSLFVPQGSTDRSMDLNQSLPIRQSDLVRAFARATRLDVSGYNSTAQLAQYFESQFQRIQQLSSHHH

[6] = molecular target: T5, Heat shock factor protein 1 (Mus musculus, UniProt P38532); experiment: decrease of HSF1-responsive luciferase luminescence – cell-based, NIH3T3, dose retest, confirmation (AID 2382); format: functional;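 note: NIH3T3 fibroblasts with HSF1-driven luciferase reporter stressed by proteasome inhibitor MG132; luminescence from HSF1-driven luciferase expression after 8 hours of MG132 stress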
T5 sequence (P38532 whole entry): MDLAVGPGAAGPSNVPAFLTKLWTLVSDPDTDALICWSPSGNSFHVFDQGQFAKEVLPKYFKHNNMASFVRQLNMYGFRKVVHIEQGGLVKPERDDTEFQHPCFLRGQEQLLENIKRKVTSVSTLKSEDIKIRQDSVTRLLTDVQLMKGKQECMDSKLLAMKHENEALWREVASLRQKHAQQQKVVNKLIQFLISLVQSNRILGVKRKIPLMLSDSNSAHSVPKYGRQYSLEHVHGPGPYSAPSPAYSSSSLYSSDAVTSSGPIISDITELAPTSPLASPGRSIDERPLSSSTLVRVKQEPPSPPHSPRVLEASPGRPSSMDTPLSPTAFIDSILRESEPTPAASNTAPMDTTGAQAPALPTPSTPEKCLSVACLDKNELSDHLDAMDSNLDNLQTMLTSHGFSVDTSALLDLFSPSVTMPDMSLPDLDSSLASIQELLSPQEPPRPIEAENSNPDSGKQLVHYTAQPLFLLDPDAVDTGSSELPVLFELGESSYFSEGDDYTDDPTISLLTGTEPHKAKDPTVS

[7] = molecular target: Nonstructural protein 1 (Influenza A virus, UniProt Q194T2); format: functional, Influenza A virus (A/California/07/2009(H1N1))
[8] = molecular target: Beta-galactosidase (Escherichia coli, UniProt Q8VNN2); experiment: detection-enzyme interference by beta-gal modulators – biochemical, E. coli enzyme, set 3, artefact control for CCR6 antagonist project, dose response (AID 504712); format: functional
[9] = molecular target: C-C chemokine receptor type 6 (Homo sapiens, UniProt P51684); experiment: antagonism of CCR6 beta-arrestin recruitment – cell-based, luminescent beta-arrestin readout, dose response (AID 504728); format: functional
[10] = system: Vero; experiment: cells; format: functional; conditions: Chlorocebus sabaeus
[11] = system: Streptococcus; experiment: GAS UMAA2166 growth inhibition – luminescence, BacTiterGlo, counter-screen for streptokinase expression inhibitor project, dose response (AID 1915); format: functional, organism-based;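 note: potency for reduction of bacterial viability or growth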
[12] = Trypanosoma cruzi growth suppression in host cells – NIH3T3 host cells, beta-gal luminescence, confirmation (AID 2044); format: functional, cell-based;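 note: intracellular parasites grown in NIH/3T3 mouse fibroblasts as host cells; luminescent beta-galactosidase reporter signal from transgenic T. cruzi replicating inside host cells; inhibitors lower the luminescence signal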
[13] = system: Streptococcus sp. 'group A'; experiment: Streptococcus pyogenes SK(-)GAS viability under kanamycin – luminescence, BacTiterGlo, confirmation, counter-screen for streptokinase expression inhibitor project, dose response (AID 1900); format: functional, organism-based
[14] = loss of viability in HepG2 cells – cell-based, CellTiter-Glo, cherry-picked, cytotoxicity control for Shn3 inhibitor project, dose response (AID 624134); format: functional
[15] = luciferase reporter signal suppression in cells – H4 neuroglioma cells, luminescence, dose response (AID 1990); format: functional, cell-based
[16] = system: H9c2; experiment: cells; format: functional, cell-based; conditions: Rattus norvegicus, H9c2, Myocardium;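 note: confirmatory concentration-response retest of ultra-high-throughput screening hits for modulation of myocardial damage; cell death induced by hydrogen peroxide oxidative stress; compound pretreatment for 60 min then peroxide exposure for 2 h; potency is for protecting the cells against peroxide damage rather than for killing them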
[17] = NIH3T3 cell viability loss – ATP luminescence, mouse fibroblasts, counter-screen, dose response (AID 2010); format: functional, cell-based;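 note: cells exposed to compound for about 90 hours before reading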
[18] = cells; format: functional, cell-based
[19] = reduction of Shn3 3'UTR-driven luciferase in osteoblasts – cell-based, Clone20 osteoblasts, firefly luciferase, cherry-picked, dose response (AID 624132); format: functional;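 note: firefly luciferase luminescence from reporter carrying the Shn3 3'UTR in osteoblasts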
[20] = alpha-synuclein stem-loop luciferase translation blockers – H4 neuroglioma cells, luminescence, confirmation (AID 1988); format: functional, cell-based
[21] = non-specific 3'UTR reporter inhibition in Clone20-Shn3RL – cell-based, Renilla luciferase, cherry-picked, counter-screen for Shn3 inhibitor project, dose response (AID 624133); format: functional
[22] = cells; format: functional, cell-based; remark: listed apart in the source
[23] = HepG2 cell cytotoxicity, dose response, cytotoxicity control for non-replicating M. tuberculosis project (AID 489018); format: functional; conditions: Mycobacterium tuberculosis
[24] = Luminescence Cell-Based Dose Response HTS to Identify Inhibitors of 5'UTR Stem-Loop Driven Prion Protein mRNA Translation in H4 Neuroglioblastoma Cells. [Related pubchem assays: 1827 (Project Summary), 1813 (Primary HTS)]; format: functional
[25] = cells; format: functional
[26] = Vero E6 cell cytotoxicity, dose response, cytotoxicity control for non-replicating M. tuberculosis project, secondary assay (AID 492998); format: functional, VeroE6; conditions: Vero C1008
[27] = THP-1 cell cytotoxicity, dose response, cytotoxicity control for non-replicating M. tuberculosis project (AID 489025); format: functional
[28] = molecular target: Voltage-dependent T-type calcium channel subunit alpha-1H (Homo sapiens, UniProt O95180); experiment: human CACNA1H calcium influx blockade – cell-based, synthetic library set 1, calcium flux (AID 493022); format: functional
[29] = protection from phage-mediated lysis, alamar blue read-out – E. coli UTI89, K1F phage, bacterial capsule biogenesis inhibitors (AID 488966); format: functional

T2 sequence (Q9UBE0 whole entry): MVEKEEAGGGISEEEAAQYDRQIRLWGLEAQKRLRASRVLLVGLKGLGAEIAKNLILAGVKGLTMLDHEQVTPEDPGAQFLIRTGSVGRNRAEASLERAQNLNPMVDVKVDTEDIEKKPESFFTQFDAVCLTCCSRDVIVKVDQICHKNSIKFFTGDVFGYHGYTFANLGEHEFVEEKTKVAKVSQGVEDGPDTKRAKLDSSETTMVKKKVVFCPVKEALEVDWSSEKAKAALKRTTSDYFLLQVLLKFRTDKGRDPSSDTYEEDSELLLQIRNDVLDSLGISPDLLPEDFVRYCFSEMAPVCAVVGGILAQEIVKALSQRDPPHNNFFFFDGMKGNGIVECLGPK
T2 sequence (Q9UBT2 whole entry): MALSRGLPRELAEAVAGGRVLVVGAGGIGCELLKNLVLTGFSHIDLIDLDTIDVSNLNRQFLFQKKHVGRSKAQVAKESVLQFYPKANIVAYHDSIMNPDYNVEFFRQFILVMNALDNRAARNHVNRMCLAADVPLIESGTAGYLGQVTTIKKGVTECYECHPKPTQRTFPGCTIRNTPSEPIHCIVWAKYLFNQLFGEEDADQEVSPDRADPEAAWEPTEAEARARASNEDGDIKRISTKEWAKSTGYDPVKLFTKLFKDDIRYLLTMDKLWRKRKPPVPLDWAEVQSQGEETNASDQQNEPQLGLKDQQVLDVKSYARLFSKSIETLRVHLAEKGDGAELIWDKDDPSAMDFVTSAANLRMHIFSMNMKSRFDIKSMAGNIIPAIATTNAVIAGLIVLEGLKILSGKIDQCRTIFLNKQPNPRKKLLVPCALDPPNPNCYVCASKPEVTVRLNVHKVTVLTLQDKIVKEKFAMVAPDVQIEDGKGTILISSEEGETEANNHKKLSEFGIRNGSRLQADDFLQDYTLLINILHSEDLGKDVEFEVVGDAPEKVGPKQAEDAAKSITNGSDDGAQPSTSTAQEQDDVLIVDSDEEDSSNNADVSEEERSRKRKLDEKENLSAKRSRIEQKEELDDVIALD
Sequence of Voltage-dependent T-type calcium channel subunit alpha-1H (O95180 whole entry): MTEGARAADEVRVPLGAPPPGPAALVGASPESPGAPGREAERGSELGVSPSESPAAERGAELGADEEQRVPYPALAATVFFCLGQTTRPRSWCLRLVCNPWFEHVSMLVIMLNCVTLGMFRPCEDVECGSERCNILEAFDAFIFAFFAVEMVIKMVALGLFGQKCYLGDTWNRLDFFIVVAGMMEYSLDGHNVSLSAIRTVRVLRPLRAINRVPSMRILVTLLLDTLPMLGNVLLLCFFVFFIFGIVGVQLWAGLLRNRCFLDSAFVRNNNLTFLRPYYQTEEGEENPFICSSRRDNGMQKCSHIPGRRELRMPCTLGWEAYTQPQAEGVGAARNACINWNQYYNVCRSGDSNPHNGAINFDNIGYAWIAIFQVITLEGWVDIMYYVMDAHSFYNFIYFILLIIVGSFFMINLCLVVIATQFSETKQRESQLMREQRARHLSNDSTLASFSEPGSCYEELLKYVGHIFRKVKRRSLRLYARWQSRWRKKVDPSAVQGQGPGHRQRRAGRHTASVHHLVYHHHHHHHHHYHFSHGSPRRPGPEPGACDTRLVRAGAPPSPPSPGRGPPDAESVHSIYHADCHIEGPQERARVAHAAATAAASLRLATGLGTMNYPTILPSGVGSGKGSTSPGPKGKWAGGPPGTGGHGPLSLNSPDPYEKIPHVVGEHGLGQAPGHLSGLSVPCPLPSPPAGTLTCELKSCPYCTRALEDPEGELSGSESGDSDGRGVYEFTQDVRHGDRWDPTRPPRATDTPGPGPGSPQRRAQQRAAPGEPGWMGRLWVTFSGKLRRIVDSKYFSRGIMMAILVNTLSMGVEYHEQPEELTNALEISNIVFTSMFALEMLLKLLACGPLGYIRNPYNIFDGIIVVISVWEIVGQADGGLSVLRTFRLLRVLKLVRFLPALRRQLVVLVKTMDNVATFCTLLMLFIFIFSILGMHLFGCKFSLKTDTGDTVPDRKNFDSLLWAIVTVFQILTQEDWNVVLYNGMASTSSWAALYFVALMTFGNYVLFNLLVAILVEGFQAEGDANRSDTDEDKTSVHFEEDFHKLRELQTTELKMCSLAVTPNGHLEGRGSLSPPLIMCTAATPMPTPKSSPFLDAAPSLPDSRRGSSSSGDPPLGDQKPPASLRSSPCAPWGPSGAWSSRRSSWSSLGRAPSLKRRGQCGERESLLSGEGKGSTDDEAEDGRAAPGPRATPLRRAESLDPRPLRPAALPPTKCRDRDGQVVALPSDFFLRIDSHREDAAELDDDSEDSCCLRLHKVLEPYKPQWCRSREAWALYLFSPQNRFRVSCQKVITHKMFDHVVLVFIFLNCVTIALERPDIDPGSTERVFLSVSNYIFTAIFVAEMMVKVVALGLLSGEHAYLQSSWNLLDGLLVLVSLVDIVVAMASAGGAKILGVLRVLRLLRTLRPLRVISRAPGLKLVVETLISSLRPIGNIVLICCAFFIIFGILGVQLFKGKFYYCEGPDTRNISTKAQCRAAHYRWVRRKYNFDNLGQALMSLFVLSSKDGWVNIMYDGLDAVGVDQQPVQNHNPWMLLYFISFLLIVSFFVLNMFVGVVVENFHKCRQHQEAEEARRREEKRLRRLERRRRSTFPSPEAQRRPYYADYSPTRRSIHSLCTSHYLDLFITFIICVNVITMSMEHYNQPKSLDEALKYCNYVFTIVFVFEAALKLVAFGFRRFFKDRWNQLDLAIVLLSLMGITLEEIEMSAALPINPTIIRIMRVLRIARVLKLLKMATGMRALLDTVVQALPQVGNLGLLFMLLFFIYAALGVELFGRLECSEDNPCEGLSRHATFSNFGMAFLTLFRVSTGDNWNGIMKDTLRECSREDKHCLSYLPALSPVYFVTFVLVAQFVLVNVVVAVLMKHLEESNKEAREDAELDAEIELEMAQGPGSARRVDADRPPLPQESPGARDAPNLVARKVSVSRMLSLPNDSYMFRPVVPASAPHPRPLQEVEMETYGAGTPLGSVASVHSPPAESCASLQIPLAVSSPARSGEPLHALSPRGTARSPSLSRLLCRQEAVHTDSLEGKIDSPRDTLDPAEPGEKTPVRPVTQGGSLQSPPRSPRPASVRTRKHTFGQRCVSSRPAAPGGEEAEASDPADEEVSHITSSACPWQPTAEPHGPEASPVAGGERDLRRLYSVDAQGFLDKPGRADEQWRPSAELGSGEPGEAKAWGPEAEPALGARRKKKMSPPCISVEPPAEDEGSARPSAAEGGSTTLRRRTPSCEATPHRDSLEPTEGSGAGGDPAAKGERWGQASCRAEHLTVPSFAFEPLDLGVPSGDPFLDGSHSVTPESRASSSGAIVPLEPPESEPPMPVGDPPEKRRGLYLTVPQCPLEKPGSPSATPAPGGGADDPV
Sequence of Nonstructural protein 1 (Q194T2 whole entry): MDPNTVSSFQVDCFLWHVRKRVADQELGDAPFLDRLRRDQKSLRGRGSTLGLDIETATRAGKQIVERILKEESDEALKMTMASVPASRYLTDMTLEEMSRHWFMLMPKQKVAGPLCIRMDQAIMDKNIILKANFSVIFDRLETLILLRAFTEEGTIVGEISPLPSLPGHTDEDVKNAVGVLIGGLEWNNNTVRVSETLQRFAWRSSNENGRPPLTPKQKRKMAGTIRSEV
Sequence of C-C chemokine receptor type 6 (P51684 whole entry): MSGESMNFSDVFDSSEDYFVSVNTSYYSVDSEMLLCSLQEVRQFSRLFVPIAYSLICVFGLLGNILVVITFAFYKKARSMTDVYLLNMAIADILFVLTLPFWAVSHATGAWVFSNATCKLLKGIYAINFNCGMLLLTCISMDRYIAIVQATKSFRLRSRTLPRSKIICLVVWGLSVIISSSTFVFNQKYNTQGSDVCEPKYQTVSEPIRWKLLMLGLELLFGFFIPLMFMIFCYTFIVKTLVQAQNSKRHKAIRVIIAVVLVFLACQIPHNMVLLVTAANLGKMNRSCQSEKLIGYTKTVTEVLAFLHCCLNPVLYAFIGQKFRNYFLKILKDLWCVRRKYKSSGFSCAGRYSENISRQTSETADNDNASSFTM
Sequence of Beta-galactosidase (Q8VNN2 whole entry): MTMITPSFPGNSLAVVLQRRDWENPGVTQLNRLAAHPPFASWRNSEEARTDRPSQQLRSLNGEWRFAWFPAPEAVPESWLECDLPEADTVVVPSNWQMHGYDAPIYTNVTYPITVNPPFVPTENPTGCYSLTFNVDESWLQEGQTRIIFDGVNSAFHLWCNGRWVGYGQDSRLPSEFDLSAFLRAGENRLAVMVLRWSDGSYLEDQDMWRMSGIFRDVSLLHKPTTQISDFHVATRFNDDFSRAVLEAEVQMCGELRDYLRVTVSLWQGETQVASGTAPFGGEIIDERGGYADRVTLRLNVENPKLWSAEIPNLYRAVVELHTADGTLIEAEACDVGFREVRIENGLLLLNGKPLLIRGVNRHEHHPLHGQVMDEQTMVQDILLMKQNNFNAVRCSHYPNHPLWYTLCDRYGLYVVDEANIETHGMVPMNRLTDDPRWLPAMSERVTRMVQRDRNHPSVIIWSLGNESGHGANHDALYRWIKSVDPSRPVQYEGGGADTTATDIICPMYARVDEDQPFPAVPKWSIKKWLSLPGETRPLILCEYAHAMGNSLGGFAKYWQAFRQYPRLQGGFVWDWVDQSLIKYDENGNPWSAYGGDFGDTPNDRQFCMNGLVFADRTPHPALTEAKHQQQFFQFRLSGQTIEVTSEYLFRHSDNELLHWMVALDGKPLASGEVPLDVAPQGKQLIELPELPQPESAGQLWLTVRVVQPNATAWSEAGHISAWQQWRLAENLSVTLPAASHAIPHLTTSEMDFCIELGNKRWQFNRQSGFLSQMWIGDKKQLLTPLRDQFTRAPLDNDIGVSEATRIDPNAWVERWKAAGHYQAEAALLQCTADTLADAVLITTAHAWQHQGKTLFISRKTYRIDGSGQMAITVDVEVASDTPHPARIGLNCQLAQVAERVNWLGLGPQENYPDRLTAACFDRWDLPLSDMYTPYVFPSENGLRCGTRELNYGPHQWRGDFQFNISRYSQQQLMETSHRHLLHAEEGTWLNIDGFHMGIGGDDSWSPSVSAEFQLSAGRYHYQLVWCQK

Structure (SMILES): Cc1ccccc1N1C(=O)/C(=C/NNC(=O)c2ccccc2O)C(=O)NC1=S
- EC50 [1]: 23.5 µM (active)
- IC50 [2]: 42.4 µM (active)
- IC50 [3]: 11.5 µM (active)
- IC50 [4]: 25.7 µM (active)
- EC50 [5]: 21.2 µM (active)
- EC50 [6]: 30.8 µM (active)
- IC50 [7]: 13.4 µM (active)

Structure (SMILES): CCc1ccccc1OCC(=O)Nc1nc(-c2cccnc2)cs1
- IC50 [8]: > 66.6 µM (inactive)
- IC50 [9]: > 66.6 µM (inactive)
- CC50 [10]: > 25 µM (active)
- EC50 [11]: 3.28 µM (active)
- EC50 [12]: 1.14 µM (active)
- EC50 [13]: 0.428 µM (active)

Structure (SMILES): Cc1cc(C)n(-c2ccc3cccc(NS(C)(=O)=O)c3n2)n1
- AC50 [14]: 6.2 µM (active)
- EC50 [15]: 0.137 µM (active)
- IC50 [16]: > 79 µM (inactive)
- EC50 [17]: 0.68 µM (active)
- EC50 [18]: > 350 µM (not active)
- AC50 [19]: 1.32 µM (active)
- EC50 [20]: 0.159 µM (active)
- EC50 [12]: 1.07 µM (active)
- AC50 [21]: 0.759 µM (active)
- EC50 [22]: > 350 µM (not active)
- CC50 [23]: 19.3 µM (active)
- EC50 [24]: 7.99 µM (active)
- IC50 [25]: > 25 µM (active)
- CC50 [26]: 3.8 µM (active)
- CC50 [27]: 12.5 µM (active)

Structure (SMILES): O=C(COc1ccc(F)cc1Cl)Nc1nnc(-c2ccc3c(c2)OCCO3)o1
- EC50 [28]: 2.6 µM (active)

Structure (SMILES): Clc1ccc2c(NCCNC3CCCCC3)ccnc2c1
- IC50 [29]: > 150 µM (active)
